{"source": "patent US20230330107A1", "about": "“METHODS TO PREVENT HIGH-GRADE SEROUS OVARIAN CANCER AND BREAST CANCER BY ADMINISTERING ANTIPROGESTINS” (priority 2020, published 2023)", "key": {"[1]": {"test_system": "DKO mice (Dicer1-Pten double-knockout, HGSC model)", "assay": "Mifepristone pellet in DKO mice with intact ovaries: HGSC development and survival", "type": "in vivo, mouse", "settings": "for median survival: DKO mice, range in brackets", "from_the_text": "(§1) Generation of DKO and cPR-DKO mice. DKO mice (Dicer1^flox/flox Pten flox/flox Amhr2^cre/+) were generated. A mouse line carrying Pgr^flox/flox, a conditional progesterone receptor (PR) gene (cPR), was provided by Drs. John Lydon and Francesco DeMayo. Conditional PR (Pgr^flox/flox)) mice were crossed with DKO mice, generating cPR- DKO mice (Pgr^flox/floxDicer1^flox/flox Pten^flox/flox Amhr2^cre/+). These Dicer1-Pten double-knockout (DKO) mice developed metastatic HGSCs arising from the fallopian tube with 100% penetrance. […] All DKO mice die of widespread peritoneal metastases. Besides mirroring the clinical features of human HGSC, these mouse HGSCs closely resemble human HGSC with histopathological, molecular, and genomic similarities. Mouse use and experiments were approved by the Institutional Animal Care and Use Committee (IACUC) at Indiana University School of Medicine.\n(§2) Hormone pellet implantation. To evaluate the effects of steroid hormones on HGSC development, upon ovariectomy at 5-6 weeks of age, DKO mice were implanted subcutaneously with a pellet of 17-β estradiol (E2) (0.72 mg/90 days/mouse), progesterone (P4) (25 mg/90 days/mouse), or combined E2 (0.72 mg) & P4 (25 mg). Also, for shorter periods of P4 exposure, ovariectomized DKO mice were treated with a P4 pellet of 2 mg (1 week) or 6 mg (3 weeks). Another set of ovariectomized DKO mice implanted with a placebo (a pellet without hormone) served as controls. […] For a control group, DKO mice received a placebo pellet for mifepristone. After anesthesia, a pellet was inserted subcutaneously (SQ) after a single skin incision (0.5-1.0 cm) on the back near ovary location. The skin incision was closed with either monofilament suture or wound clips. The pellets were purchased from Innovative Research of America (Sarasota, FL, USA).\n(§3) Statistical analysis. Statistical analyses were performed using a GraphPad Prism software (Version 8, GraphPad Software, Inc.). P values less than 0.05 were considered statistically significant. Log-rank test was used to compare survival distributions between different experimental groups of mice; Student's t-test to compare hormone levels between placebo-treated ovariectomized DKO mice and progesterone (P4)-treated ovariectomized DKO mice at 1 week, 3 weeks, and 3 months; Student's t-test to compare hormone levels between ovariectomized DKO mice (Ovex) and each experimental group of DKO mice; and Fisher's exact test to analyze PR expression in benign and malignant ovarian tumors.\nProgesterone generates its biological effects through the progesterone receptors (PR). Thus, to evaluate further whether progesterone signaling is critical to the development of HGSC with metastatic potential, DKO mice were treated with the PR antagonist mifepristone (RU486), an antiprogestin, that acts by binding to PR and inhibiting the transcription of its target genes. […] As expected, DKO mice treated with a placebo developed primary HGSC coupled with abundant peritoneal HGSC metastases (FIG. 1A-B). […] Histologically, the fallopian tubes from mifepristone-treated mice were composed of cystic and fibrous tissues as well as small segments of carcinoma cells in the stroma, accompanied by limited peritoneal metastasis (FIG. 1E-G)."}, "[2]": {"assay": "Measurement of serum hormone levels (ELISA) in ovariectomized DKO mice", "type": "in vivo, mouse", "settings": "P4-treated ovariectomized DKO mice", "experimental": "Measurement of hormone levels. Blood samples were collected in serum separation tubes (BD Microtainer® Tube; 365967; BD Biosciences, San Jose, CA, USA) from DKO mice or ovariectomized DKO mice with or without hormone treatment. Serum was isolated by centrifugating blood at 14,000 rpm for 5 minutes at room temperature. Measurements of serum progesterone (P4), 17-β estradiol (E2), testosterone (T), follicle-stimulating hormone (FSH), and luteinizing hormone (LH) levels were performed using ELISA (enzyme-linked immunoassay: P4, E2, and T) or RIA (radioimmunoassay: FSH and LH) at the Center for Research Ligand Assay and Analysis Core in Reproduction at the University of Virginia."}, "ovariectomized DKO mice": {"test_system": "ovariectomized DKO mice", "type": "in vivo", "from_the_text": "as §1\nMouse bilateral ovariectomy. To examine the effect of ovary on HGSC development in the fallopian tube, both ovaries were surgically excised with the fallopian tubes remaining intact in DKO mice. The surgery was performed at 5-6 weeks of age, when there is no sign of tumors in the fallopian tube. These ovary-deficient DKO mice were then monitored for tumor development. Another set of DKO mice without surgery served as controls. Prior to surgery, DKO mice were anesthetized using Avertin (2,2,2,-tribromoethano) (125-250 mg/kg) (Sigma-Aldrich, St. Louis, Missouri, USA). For analgesia, Carprofen (5-10 mg/kg) (TCI America, Portland, OR, USA) was used a one dose pre-operatively and every 12 hours thereafter for 24-48 hours post-operatively.\nas §2, §3\nProgesterone induces HGSC with metastatic potential in ovary-deficient DKO mice. Ovary-deficient DKO mice were treated with steroid hormones. […] Tumor development and mouse survival were then monitored."}, "[3]": {"settings": "mifepristone 3 mg/m for 3 months"}, "[4]": {"settings": "mifepristone 16.7 mg/m for 6 months"}}, "note": "Several values for one entry are separate records, joined by “and”; a condition that tells them apart may be missing. Equal entries are not always repeated. Entries after “also recorded” stand apart in the source; their conditions may differ."}
{"smiles": "CC#C[C@]1(O)CC[C@H]2[C@@H]3CCC4=CC(=O)CCC4=C3[C@@H](c3ccc(N(C)C)cc3)C[C@@]21C", "note": "[mifepristone, (8S,11R,13S,14S,17S)-11-[4-(dimethylamino)phenyl]-17-hydroxy-13-methyl-17-prop-1-ynyl-1,2,6,7,8,11,12,14,15,16-decahydrocyclopenta[a]phenanthren-3-one]", "values": [{"measurement": "median survival", "setting": "[1]; mifepristone 3 mg/m for 3 months, s.c. pellet from 5-6 weeks of age", "result": "11.2 (5.9-21.3) months of age"}, {"measurement": "median survival", "setting": "[1]; mifepristone 16.7 mg/m for 6 months, s.c. pellets", "result": "13.1 (6.6-24.3) months of age and 13.1 months of age"}, {"measurement": "DKO mice not inhibited by mifepristone (HGSC development and peritoneal metastasis)", "setting": "[1]; high dose, 16.7 mg/m for 6 m, 2/21 mice", "result": 9.5, "unit": "%"}, {"measurement": "DKO mice that still developed fallopian tube HGSC and widespread peritoneal metastases", "setting": "[1]; low-dose group, 3 mg/m, 7/21 mice", "result": 33.3, "unit": "%"}, {"measurement": "hazard ratio (HR) of survival vs placebo-treated DKO mice", "setting": "[1]; [3]", "result": 0.40}, {"measurement": "lived longer than DKO mice with placebo", "setting": "[1]; [3]", "result": "~4", "unit": "months"}, {"measurement": "effect on HGSC development and peritoneal metastasis (in words)", "setting": "[1]; mifepristone 3 mg/m for 3 months vs placebo", "result": "developed little peritoneal metastasis; also recorded: effectively suppressed HGSC development in the fallopian tube and peritoneal metastasis"}, {"measurement": "effect on HGSC development and peritoneal metastasis (in words)", "setting": "[1]; mifepristone 16.7 mg/m for 6 m", "result": "effectively suppressed HGSC development and peritoneal metastasis"}, {"measurement": "hazard ratio (HR) of survival vs placebo-treated DKO mice", "setting": "[1]; [4]", "result": 0.13}, {"measurement": "lived longer than placebo-treated DKO mice", "setting": "[1]; [4]", "result": "~6", "unit": "months"}]}
{"smiles": "CC(=O)[C@H]1CC[C@H]2[C@@H]3CCC4=CC(=O)CC[C@]4(C)[C@H]3CC[C@]12C", "note": "[P4, progesterone]", "values": [{"measurement": "serum progesterone levels (in words)", "setting": "[2]", "result": "elevated serum progesterone levels"}, {"measurement": "hazard ratio (HR) of survival vs placebo-treated ovariectomized DKO mice", "setting": "ovariectomized DKO mice; P4 25 mg pellet for 3 months", "result": 3.01}, {"measurement": "ovariectomized DKO mice that developed predominantly HGSC in the fallopian tube with widespread peritoneal metastases and ascites", "setting": "ovariectomized DKO mice; P4 25 mg pellet for 3 months, 32/32 mice", "result": 100, "unit": "%"}, {"measurement": "median survival", "setting": "ovariectomized DKO mice; ovariectomized DKO mice, s.c. hormone pellet for 3 months (P4 25 mg; E2 0.72 mg), range in brackets", "result": "6.5 months of age"}]}
{"smiles": "C[C@]12CC[C@@H]3c4ccc(O)cc4CC[C@H]3[C@@H]1CC[C@@H]2O", "note": "[E2, 17-β estradiol]", "values": [{"measurement": "ovariectomized DKO mice with tumors or swelling in the uterus", "setting": "ovariectomized DKO mice; female, DKO (Dicer1flox/flox Ptenflox/flox Amhr2cre/+), mouse, in vivo, 3 months", "result": 90.9, "unit": "%"}, {"measurement": "tumor phenotype in ovariectomized DKO mice (in words)", "setting": "ovariectomized DKO mice; s.c. hormone pellet for 3 months", "result": "did not produce any tumors in the fallopian tube"}]}
